For data set [1], the system named is Pseudomonas aeruginosa No. 12. Briefly: In vivo efficacy against the systemic infections in mice (Pseudomonas aeruginosa). Set-up: species or system mice (male ddY). The note with it: Pseudomonas aeruginosa No. 12, intraperitoneal infection; oral, twice, about 5 minutes and 6 hours after infection. Here is the method: (§1) Compounds 1, A and NA were each suspended in a 0.2%
(§2) aqueous solution of sodium carboxymethylcellulose.
(§3) Each of the solutions was orally administered to
(§4) mice infected with each of the test organisms under
(§5) the conditions described below, and the median
(§6) effective dose (ED50) was calculated in accordance
(§7) with the Behrens-Kaerber method [Arch. Exp. Path.
(§8) Experimental conditions:
(§9) Mice: Male mice (ddY) weighing about 20 g
Pseudomonas aeruginosa No. 12
Intraperitoneal infection with about 5 × 10^3
(§10) cells per mouse suspended in trypto-soy
(§11) Twice, about 5 minutes and 6 hours after […]

Data set [2] has as its system Staphylococcus aureus No. 50774. Nature of the data set: In vitro antibacterial activity (MIC), agar dilution method. The class given is cell-based. The method, then:
(§12) *^3 In vitro antibacterial activity
(§13) The minimum inhibitory concentrations (MIC:
(§14) μg/ml) shown in Table 1 were determined according
(§15) to the agar dilution method recommended by Japan
(§16) Society of Chemotherpy (1980)
On the technique in general: Agar dilution tests growth on a series of plates holding different concentrations.

The subject of data set [3] is Escherichia coli P-5101. The description is as above. The format is cell-based. The following applies: P5101. The method, then: as §12, §13, §14, §15, §16
Data set [4] relates to Pseudomonas aeruginosa No. 12. Described as above. The format is cell-based. The method, then:
as §12, §13, §14, §15, §16

Data set [5] deals with Staphylococcus aureus No. 50774. Nature of the data set: In vivo efficacy against the systemic infections in mice (Staphylococcus aureus). Further details: species or system mice (male ddY). The note with it: 336 h; Staphylococcus aureus No. 50774, intravenous infection; oral, twice, about 5 minutes and 6 hours after infection; observed 14 days. The method, then: as §1, §2, §3, §4, §5, §6, §7, §8, §9
Staphylococcus aureus No. 50774
Intravenous infection with about 5 × 10^8
cells per mouse suspended in saline
Twice, about 5 minutes and 6 hours after
Staphylococcus aureus No. 50774-for 14 days

Data set [6] concerns Escherichia coli P-5101. Briefly: In vivo efficacy against the systemic infections in mice (Escherichia coli). The note with it: P5101; Escherichia coli P-5101, intraperitoneal infection; oral, twice, about 5 minutes and 6 hours after infection. Further details: species or system mice (male ddY). Here is the method:
as §1, §2, §3, §4, §5, §6, §7, §8, §9
Escherichia coli P-5101
Intraperitoneal infection with about 9 × 10^6
as §10, §11

A short description of data set [7]: Acute oral toxicity in mice. The note with it: mouse, in vivo, female mice (ddY), deaths counted after 7 days. Here is the method:
*^5 Acute oral toxicity in mice
A suspension containing compound 1 in various
concentrations was orally given to female mice
(ddY) at a volume of 0.1 ml per 10 g of body weight.
The number of dead mice was counted after 7 days,
and the value of median lethal dose (LD50) was
calculated in accordance with the Behrens-Kaerber

This is an account of results in patent publication US4497816A, “7-(4-Pyridyl)-1,8-naphthyridine derivatives and their antibacterial compositions” (Dainippon Pharmaceutical Co., Ltd., priority 1982, dated 1985).

Converted amounts (≈) assume the structure as drawn.

On to `CCn1cc(C(=O)O)c(=O)c2ccc(C)nc21` [NA, 1-ethyl-1,4-dihydro-7-methyl-4-oxo-1,8-naphthyridine-3-carboxylic acid], for which the values for the ED50 in data set [1] and in data set [5] were 267 mg/kg and 767 mg/kg, respectively. For the same compound, the MIC (commonly the lowest concentration found to suppress growth) in data set [2] was determined as 50 µg/mL (≈ 215 µM); in the data set on Escherichia coli P-5101 [3], 3.13 µg/mL (≈ 13.5 µM); in data set [4], 200 µg/mL (≈ 861 µM).

`CCn1cc(C(=O)O)c(=O)c2ccc(-c3ccncc3)nc21` [Compound A, 1-ethyl-1,4-dihydro-4-oxo-7-(4-pyridyl)-1,8-naphthyridine-3-carboxylic acid]: the ED50 (usually the midpoint of the dose-response relation) in data set [1] is more than 100 mg/kg; in the data set with Escherichia coli P-5101 [6], 21 mg/kg; in data set [5] it was 23.7 mg/kg. Moreover, the MIC was found to be 1.56 µg/mL (≈ 5.28 µM) in data set [2], 0.78 µg/mL (≈ 2.64 µM) against Escherichia coli P-5101 [3] and 12.5 µg/mL (≈ 42.3 µM) in data set [4].

`CCn1cc(C(=O)O)c(=O)c2cc(F)c(-c3ccncc3)nc21` [Compound 1, 1-Ethyl-6-fluoro-1,4-dihydro-4-oxo-7-(4-pyridyl)-1,8-naphthyridine-3-carboxylic acid]: the ED50 in data set [1] stood at 12.2 mg/kg; in the data set with Escherichia coli P-5101 [6] it was 3.1 mg/kg; in data set [5] it was 2.84 mg/kg. Besides, the MIC is 0.2 µg/mL (≈ 0.638 µM) in data set [2], 0.2 µg/mL (≈ 0.638 µM) against Escherichia coli P-5101 [3] and 3.13 µg/mL (≈ 9.99 µM) in data set [4]. Besides, the LD50 (usually the dose at which mortality reaches 50%) at 168 h in data set [7] is more than 2000 mg/kg.
